From patent US20020137929A1, “1 - (3-heterocyclylphenyl) isothiourea, -isourea, -guanidine and -amidine herbicidal agents” (Intellectual Property Department, BASF Aktiengesellschaft, priority 1998, published 2002) come the findings set out here.

In data set [1] the test system is CHEAL (Lambsquarters, Common). The data set can be described thus: Preemergence herbicidal evaluation. The class given is in vivo, Chenopodium album. To be noted: rated 4-5 weeks after treatment. The method, boiled down:
(§1)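 Seeds were planted in potting soil in cups, then sprayed preemergence with the test compound in aqueous acetone at about 0.0156 to 0.500 kg per hectare. Cups were kept under greenhouse conditions and visually rated 4–5 weeks after treatment on a 0–9 scale against an untreated control.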

The next data set has as its system CYPSE (Flatsedge). The data set can be described thus: Preemergence weed control under flooded paddy conditions. The class given is in vivo, Cyperus serotinus. To be noted: rated 3-4 weeks after treatment. The essentials:
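Silt loam, seeds in top 0.5 cm; flood held 1.5-3 cm; test cpd as acetone/water 50/50 into flood water, ~0.0313-0.500 kg/ha a.i.; greenhouse 3-4 wk; visual 0-9 score vs control.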

In data set [2] the test system is ECHORC (Watergrass (Calif.)). Described as above. The class given is in vivo, Echinochloa oryzoides. To be noted: rated 3-4 weeks after treatment. The method, boiled down:
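Seeds or propagules sown in top 0.5 cm of silt loam soil, flooded 1.5 to 3 cm above surface throughout. Compound in 50/50 v/v aqueous/acetone pipetted into flood water at about 0.0313 to 0.500 kg/ha. Visual 0-9 rating versus control after three to four weeks in greenhouse.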

The test system of data set [3] is ORYSAT (Rice, Tebonnet). Description: Preemergence herbicidal evaluation. The class given is in vivo, Oryza sativa, (L.) Tebonnet. The settings on record: rated 4-5 weeks after treatment. The method, boiled down: as §1
For data set [4], the system named is ORYSAT (Rice, Tebonnet). Description: Rice tolerance to post-transplant applications, flooded paddy conditions (Table III). Type of data set: in vivo, Oryza sativa, (L.) Tebonnet. The settings on record: in vivo. The procedure: Results of herbicide evaluation are expressed on a rating scale (0-9). The scale is based upon a visual observation of plant stand, vigor, malformation, size, chlorosis and overall plant appearance as compared with a control.
The tolerance of transplanted rice to post-transplanted herbicide applications is determined as follows: two ten-day-old rice seedlings (cv. Tebonnet) are transplanted into silt loam soil in 32 oz. plastic containers with a diameter of 10.5 cm and no drainage holes. After transplanting, the containers are flooded and the water level is maintained at 1.5 to 3 cm above the soil surface. Three days after transplanting, the flooded soil surface of the containers is treated with the selected aqueous/acetone 50/50 v/v mixture containing the test compounds to provide the equivalent of about 0.0313 to 0.500 kg/ha of active ingredient. The treated containers are placed on greenhouse benches, watered such that the water level is maintained as stated above, and cared for in accordance with conventional greenhouse procedures. Three to four weeks after treatment, the test is terminated and each container is examined and herbicidal effect rated according to the rating system provided in Example 37. The compounds evaluated are reported by compound number given in Example 37.
Plant species employed in this example are reported by header abbreviation, common name and scientific name.

The test system of another data set is ECHCG (Barnyardgrass). Description: Postemergence herbicidal evaluation. The settings on record: for herbicidal rating ECHCG / ECHCG herbicidal rating: postemergence. The class given is in vivo, Echinochloa crus-galli. The essentials:
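Visual 0-9 injury score (stand, vigor, malformation, size, chlorosis, appearance vs untreated) taken four to five weeks post-spray, averaged across repeat tests. Test plants about two weeks old; foliar spray of acetone/water (1:1) with 0.5% surfactant delivering ~0.0156-0.500 kg active/ha.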

In a further data set the test system is MOOVA (Monochoria). The data set can be described thus: Postemergence weed control under flooded paddy conditions. The class given is in vivo, Monochoria vaginalis. To be noted: postemergence weeds, 3-4 weeks after treatment. The essentials: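 Containers holding 3–5 cm weeds and rice at 1.5–2.5 leaves are flooded to 1.5–3 cm above soil. Compound in 50/50 v/v aqueous/acetone is then added directly to the water, about 0.0313–0.500 kg/ha. Plants are kept in the greenhouse and rated 0–9 visually at 3–4 weeks.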

The mark [5] stands for this setting: rate 0.0156 kg/ha, rating scale 0-9.
Setting [6] is: rate 0.0313 kg/ha, rating scale 0-9.
[7] abbreviates: rate 0.0625 kg/ha, rating scale 0-9.
The mark [8] stands for this setting: rate 0.1250 kg/ha, rating scale 0-9.
Where [9] appears, read: rate 0.2500 kg/ha, rating scale 0-9.

As to `Cn1c(C(F)(F)F)cc(=O)n(-c2cc(N=C3SCC(=O)N3Cc3ccc(S(N)(=O)=O)cc3)c(Cl)cc2F)c1=O` [Compound 135, Alpha-{2-{{2-chloro-5-[3,6-dihydro-3-methyl-2,6-dioxo-4-(trifluoromethyl)-1(2H)-pyrimidinyl]-4-fluorophenyl}imino}-4-oxo-3-thiazolidinyl}-p-toluenesulfonamide], the “Preemergence herbicidal rating CHEAL” value in data set [1] (setting [5]) worked out at 7.0; in data set [1] (setting [6]), 7.0; in data set [1] (setting [7]), 9.0; in data set [1] (setting [8]) it was 9.0; in data set [1] (setting [9]), 9.0. Moreover, the “herbicidal effect rating, CYPSE” value in the data set with CYPSE (Flatsedge) (0.1250 kg/ha) and with CYPSE (Flatsedge) (0.2500 kg/ha) was 0.0 in each case. Also, the “herbicidal effect rating, ECHORC” value in data set [2] (0.0313 kg/ha) amounted to 7.0; in data set [2] (0.0625 kg/ha), 7.0; in data set [2] (0.1250 kg/ha), 7.0; in data set [2] (0.2500 kg/ha), 9.0. In addition, the “Preemergence herbicidal rating ORYSAT” value was 1.0 in the data set on ORYSAT (Rice, Tebonnet) [3] (setting [5]); 1.0 in the data set on ORYSAT (Rice, Tebonnet) [3] (setting [6]); 1.0 in the data set on ORYSAT (Rice, Tebonnet) [3] (setting [7]); 1.0 with ORYSAT (Rice, Tebonnet) [3] (setting [8]); 7.0 in the data set on ORYSAT (Rice, Tebonnet) [3] (setting [9]). In addition, in the data set on ORYSAT (Rice, Tebonnet) [4], the “herbicidal effect rating, ORYSAT (rice tolerance)” value (shortened to “herbicidal effect rating, ORYSAT”) worked out at 0.0. The “herbicidal rating ECHCG” value in the data set on ECHCG (Barnyardgrass) (rate 0.0156 kg/ha) is on record as 1.0; in the data set with ECHCG (Barnyardgrass) (rate 0.0313 kg/ha) it was 2.0; with ECHCG (Barnyardgrass) (rate 0.0625 kg/ha) it was 2.0.

In the case of `CSCCN1C(=O)CSC1=Nc1cc(-n2c(=O)cc(C(F)(F)F)n(C)c2=O)c(F)cc1Cl` [Compound 157], the “Preemergence herbicidal rating CHEAL” value in data set [1] (setting [6]) was 1.0; in data set [1] (setting [7]) it was 0.0; in data set [1] (setting [8]) it was 9.0; in data set [1] (setting [9]) it was 9.0. Further, in data set [2] (0.2500 kg/ha), the “herbicidal effect rating, ECHORC” value stood at 0.0. In addition, the “Preemergence herbicidal rating ORYSAT” value in the data set with ORYSAT (Rice, Tebonnet) [3] (setting [6]) was 0.0; with ORYSAT (Rice, Tebonnet) [3] (setting [7]), 0.0; in the data set on ORYSAT (Rice, Tebonnet) [3] (setting [8]), 0.0; with ORYSAT (Rice, Tebonnet) [3] (setting [9]), 0.0. Besides, in the data set with ORYSAT (Rice, Tebonnet) [4], the “herbicidal effect rating, ORYSAT” value is reported as 0.0. In addition, the “herbicidal rating ECHCG” value is on record as 0.0 in the data set with ECHCG (Barnyardgrass) (rate 0.0156 kg/ha), 1.0 in the data set with ECHCG (Barnyardgrass) (rate 0.0313 kg/ha) and 2.0 with ECHCG (Barnyardgrass) (rate 0.0625 kg/ha).

Take `COc1ccc(CN2C(=O)CSC2=Nc2cc(-n3c(=O)cc(C(F)(F)F)n(C)c3=O)c(F)cc2Cl)cc1OC` [Compound 134, 3-{4-Chloro-5-{[3-(3,4-dimethoxybenzyl)-4-oxo-2-thiazolidinylidene]amino}-2-fluorophenyl}-1-methyl-6-(trifluoromethyl)-2,4(1H,3H)-pyrimidinedione]: the “Preemergence herbicidal rating CHEAL” value in data set [1] (setting [8]) and in data set [1] (setting [9]) was 9.0 throughout. In addition, the “herbicidal effect rating, ECHORC” value in data set [2] (0.2500 kg/ha) turned out to be 2.0. In addition, the “Preemergence herbicidal rating ORYSAT” value in the data set with ORYSAT (Rice, Tebonnet) [3] (setting [8]) is on record as 0.0; in the data set with ORYSAT (Rice, Tebonnet) [3] (setting [9]) it was 0.0. In addition, the “herbicidal effect rating, ORYSAT” value with ORYSAT (Rice, Tebonnet) [4] turned out to be 2.0. Further, the “herbicidal rating ECHCG” value in the data set with ECHCG (Barnyardgrass) (rate 0.0156 kg/ha) was found to be 0.0; in the data set on ECHCG (Barnyardgrass) (rate 0.0313 kg/ha), 2.0; in the data set with ECHCG (Barnyardgrass) (rate 0.0625 kg/ha), 1.0.

For `C=CCN1C(=O)C(CC(=O)Nc2ccccc2)SC1=Nc1cc(-n2c(=O)cc(C(F)(F)F)n(C)c2=O)c(F)cc1Cl` (centres unmarked) [Compound 44, 3-Allyl-2-{{2-chloro-5-[3,6-dihydro-3-methyl-2,6-dioxo-4-(trifluoromethyl)-1(2H)-pyrimidinyl]-4-fluorophenyl}imino}-4-oxo-5-thiazolidineacetanilide], the “Preemergence herbicidal rating CHEAL” value in data set [1] (rate 0.0156 kg/ha) is reported as 3.0; in data set [1] (rate 0.0313 kg/ha), 5.0; in data set [1] (rate 0.0625 kg/ha), 4.0; in data set [1] (rate 0.1250 kg/ha) it was 9.0; in data set [1] (rate 0.2500 kg/ha), 9.0; in data set [1] (rate 0.5000 kg/ha) it was 9.0. Further, the “Herbicidal rating CYPSE” value in the data set with CYPSE (Flatsedge) (0.0313 kg/ha), with CYPSE (Flatsedge) (0.0625 kg/ha), with CYPSE (Flatsedge) (0.1250 kg/ha) and in the data set on CYPSE (Flatsedge) (0.2500 kg/ha) was 0.0 throughout. The “Herbicidal rating ECHORC” value is recorded as 6.0 in data set [2] (0.0313 kg/ha), 6.0 in data set [2] (0.0625 kg/ha), 7.0 in data set [2] (0.1250 kg/ha) and 8.0 in data set [2] (0.2500 kg/ha). Moreover, the “Preemergence herbicidal rating ORYSAT” value with ORYSAT (Rice, Tebonnet) [3] (rate 0.0156 kg/ha) is on record as 0.0; in the data set with ORYSAT (Rice, Tebonnet) [3] (rate 0.0313 kg/ha), 0.0; in the data set on ORYSAT (Rice, Tebonnet) [3] (rate 0.0625 kg/ha) it was 0.0; with ORYSAT (Rice, Tebonnet) [3] (rate 0.1250 kg/ha), 0.0; with ORYSAT (Rice, Tebonnet) [3] (rate 0.2500 kg/ha), 0.0; in the data set on ORYSAT (Rice, Tebonnet) [3] (rate 0.5000 kg/ha) it was 0.0. Also, the “Herbicidal rating MOOVA” value worked out at 4.0 with MOOVA (Monochoria) (rate 0.0313 kg/ha), 4.0 in the data set on MOOVA (Monochoria) (rate 0.0625 kg/ha), 7.0 in the data set on MOOVA (Monochoria) (rate 0.1250 kg/ha) and 9.0 in the data set with MOOVA (Monochoria) (rate 0.2500 kg/ha). The “Postemergence herbicidal rating ECHCG” value in the data set on ECHCG (Barnyardgrass) (Rate 0.0156 kg/ha) amounted to 0.0; with ECHCG (Barnyardgrass) (Rate 0.0313 kg/ha), 1.0; with ECHCG (Barnyardgrass) (Rate 0.0625 kg/ha) it was 2.0; in the data set with ECHCG (Barnyardgrass) (Rate 0.1250 kg/ha), 1.0.

For the compound `COC(=O)CN1C(=O)CSC1=Nc1cc(-n2c(=O)cc(C(F)(F)F)n(C)c2=O)c(F)cc1Cl` [Compound 17, Methyl 2-{{2-chloro-5-[3,6-dihydro-3-methyl-2,6-dioxo-4-(trifluoromethyl)-1(2H)-pyrimidinyl]-4-fluorophenyl}imino}-4-oxo-3-thiazolidineacetate], the “CHEAL preemergence herbicidal rating” value is 4.5 in data set [1] (rate 0.0156 kg/ha); 6.0 in data set [1] (rate 0.0313 kg/ha); 9.0 in data set [1] (rate 0.0625 kg/ha); 9.0 in data set [1] (rate 0.1250 kg/ha); 9.0 in data set [1] (rate 0.2500 kg/ha); 9.0 in data set [1] (rate 0.5000 kg/ha). Also, the “Herbicidal rating CYPSE” value with CYPSE (Flatsedge) (0.0313 kg/ha), in the data set on CYPSE (Flatsedge) (0.0625 kg/ha), with CYPSE (Flatsedge) (0.1250 kg/ha) and with CYPSE (Flatsedge) (0.2500 kg/ha) was 9.0 in each case. In addition, the “Herbicidal rating ECHORC” value worked out at 4.0 in data set [2] (0.0313 kg/ha), 9.0 in data set [2] (0.0625 kg/ha), 9.0 in data set [2] (0.1250 kg/ha) and 9.0 in data set [2] (0.2500 kg/ha). The “ORYSAT preemergence herbicidal rating” value amounted to 0.0 in the data set on ORYSAT (Rice, Tebonnet) [3] (rate 0.0156 kg/ha); 0.0 with ORYSAT (Rice, Tebonnet) [3] (rate 0.0313 kg/ha); 1.0 in the data set on ORYSAT (Rice, Tebonnet) [3] (rate 0.0625 kg/ha); 1.0 in the data set on ORYSAT (Rice, Tebonnet) [3] (rate 0.1250 kg/ha); 3.3 in the data set on ORYSAT (Rice, Tebonnet) [3] (rate 0.2500 kg/ha); 6.5 with ORYSAT (Rice, Tebonnet) [3] (rate 0.5000 kg/ha). Besides, the “Herbicidal rating MOOVA” value in the data set on MOOVA (Monochoria) (rate 0.0313 kg/ha), with MOOVA (Monochoria) (rate 0.0625 kg/ha), in the data set on MOOVA (Monochoria) (rate 0.1250 kg/ha) and with MOOVA (Monochoria) (rate 0.2500 kg/ha) was 9.0 each time. Besides, the ECHCG herbicidal rating in the data set on ECHCG (Barnyardgrass) (rate 0.0156 kg/ha) stood at 0.0; with ECHCG (Barnyardgrass) (rate 0.0313 kg/ha), 0.0; in the data set with ECHCG (Barnyardgrass) (rate 0.0625 kg/ha), 2.5; in the data set with ECHCG (Barnyardgrass) (rate 0.1250 kg/ha), 8.0.
